The values below come from ChEMBL document CHEMBL1128906, “Synthesis and NK-2 antagonist effect of 1,6-diphenyl-pyrazolo [3,4-d]-thiazolo[3,2-a]4H-pyrimidin-4-one” (Bioorg Med Chem Lett, 1996).

Format in all cases: functional
For one test, the target named is T1, Substance-K receptor (Cavia porcellus, UniProt Q64077).
T1 sequence (Q64077 whole entry): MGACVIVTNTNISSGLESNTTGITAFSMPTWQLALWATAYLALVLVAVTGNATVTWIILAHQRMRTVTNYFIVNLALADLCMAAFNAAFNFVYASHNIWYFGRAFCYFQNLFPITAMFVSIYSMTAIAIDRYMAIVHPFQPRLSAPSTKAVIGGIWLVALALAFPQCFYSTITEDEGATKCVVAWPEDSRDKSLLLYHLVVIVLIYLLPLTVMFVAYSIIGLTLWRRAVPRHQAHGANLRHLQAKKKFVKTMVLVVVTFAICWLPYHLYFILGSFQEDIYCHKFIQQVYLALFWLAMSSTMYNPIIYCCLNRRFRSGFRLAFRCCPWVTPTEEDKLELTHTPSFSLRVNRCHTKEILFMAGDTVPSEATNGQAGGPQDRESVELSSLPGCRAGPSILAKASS
Put plainly: Compound was evaluated for NK-2 receptor antagonistic activity in the guinea pig trachea. The following applies: read-out: pA2 (converted).

Test [1] deals with T2, Neuromedin-K receptor (Cavia porcellus) (UniProt P30098).
T2 sequence (whole entry): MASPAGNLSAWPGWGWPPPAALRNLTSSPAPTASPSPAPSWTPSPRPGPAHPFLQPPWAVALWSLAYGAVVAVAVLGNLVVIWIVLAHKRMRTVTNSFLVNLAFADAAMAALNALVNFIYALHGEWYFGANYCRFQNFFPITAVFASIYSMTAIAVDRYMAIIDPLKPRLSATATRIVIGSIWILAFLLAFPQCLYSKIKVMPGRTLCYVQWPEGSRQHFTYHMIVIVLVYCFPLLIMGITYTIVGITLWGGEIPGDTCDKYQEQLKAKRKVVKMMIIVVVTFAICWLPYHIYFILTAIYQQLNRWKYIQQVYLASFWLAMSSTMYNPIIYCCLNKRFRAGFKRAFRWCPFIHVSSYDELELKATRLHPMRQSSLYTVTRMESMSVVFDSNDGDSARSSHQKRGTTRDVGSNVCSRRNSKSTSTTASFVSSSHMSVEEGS
Nature of the test: Compound was evaluated for NK-3 receptor antagonistic activity in the guinea pig trachea; Inactive.

The target of test [2] is Substance-P receptor (Cavia porcellus) (UniProt P30547). Nature of the test: Compound was evaluated for NK-1 receptor antagonistic activity in the guinea pig trachea; Inactive.
Substance-P receptor (Cavia porcellus), sequence (P30547 whole entry): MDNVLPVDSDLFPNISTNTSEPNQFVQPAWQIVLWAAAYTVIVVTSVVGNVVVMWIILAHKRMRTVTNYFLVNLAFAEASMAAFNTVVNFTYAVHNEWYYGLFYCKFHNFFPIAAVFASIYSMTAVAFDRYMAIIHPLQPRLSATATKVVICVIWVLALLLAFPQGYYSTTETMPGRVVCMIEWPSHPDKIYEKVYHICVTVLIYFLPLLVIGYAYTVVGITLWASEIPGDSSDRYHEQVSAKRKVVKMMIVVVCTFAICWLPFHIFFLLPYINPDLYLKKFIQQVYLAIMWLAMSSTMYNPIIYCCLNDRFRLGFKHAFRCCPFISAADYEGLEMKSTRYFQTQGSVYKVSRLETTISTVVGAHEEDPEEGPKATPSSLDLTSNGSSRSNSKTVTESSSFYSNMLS

Active and inactive are the calls of the source. The rule behind the calls is not given here.

With `O=c1c2cnn(-c3ccccc3)c2nc2scc(-c3ccccc3)n12`, the Kb at Substance-K receptor was 50.1 nM. The pA2 entry in test [1] and in test [2] was “inactive” each time.
